This is an account of results in patent publication US20050245497A1, “Treatment of ophthalmic conditions” (priority 2004, published 2005).

The test system of test [1] is bacterial endotoxin induced exudative response. The test can be described thus: Bacterial endotoxin induced exudative response in rabbits, anterior chamber fluorophotometry of FITC-dextran. It counts as in vivo, New Zealand albino rabbits. The conditions noted are these: topical 4 mg/ml; for exudative response (result in words) / reduction in the exudative response: treated eye versus saline control eye; for exudative response (result in words): n=5; for Anterior Chamber Fluorophotometer Results, Mean: Mean of 5 rabbits; for Anterior Chamber Fluorophotometer Results, Mean / Anterior Chamber Fluorophotometer Results: treated right eye, FITC-dextran fluorescence 90 minutes after endotoxin; for Anterior Chamber Fluorophotometer Results: 50 μL drop at 0, 1, 2 and 3 hours; for reduction in the exudative response: n=5, p<0.03 (Wilcoxon signed rank test). On the procedure: Thirty New Zealand albino rabbits weighing between 2.5 and 3.0 kg were used for this study. The rabbits were treated in accordance with the guidelines of the Association for Research in Vision and Ophthalmology (ARVO). One eye of each animal was used for experimental purposes, the other serving as a control eye. Slit lamp and indirect funduscopic examination was performed on all eyes before and after euthanasia.
The rabbits were divided into six groups. Group 1 (n=5) received topical 4 mg/ml deoxycortisone acetate (Spectrum Chemical Corp). Group 2 (n=5) received topical 4 mg/ml 11 -deoxycorticosterone (Spectrum Chemical Corp). Group 3 (n=5) received topical 4 mg/ml 11-desoxycortisone (Spectrum Chemical Corp). Group 4 (n=5) received topical 4 mg/ml aldosterone (Farmabios, Italy). Group 5 (n=5) received topical 4 mg/ml deoxycorticosterone (Spectrum Chemical Corp). Group 6 (n=5) received topical fludrocortisone acetate (Farmabios, Italy).
The rabbits were anaesthetised with 1 ml of a mixture of ketamine hydrochloride (35 mg/kg, intramuscular) and xylazine hydrochloride (5 mg/kg, intramuscular). In all groups, drugs were applied topically to the right eye and saline was applied to the left eye four times (at time 0, 1, 2 and 3 hours). Drugs and saline were administered to the eye as a single 50 μL drop.
20 mg/ml dextran-isothiocyanate-fluorescein (FITC-dextran, Sigma) was prepared and a 20 mg/kg dose was injected into the marginal ear vein at time […].
Endotoxin (2.5 μg/kg) isolated from Salmonella typhimurium (Sigma) was injected into the same vein at the same time with the third drop occurring at time 2 hours.
The FITC-dextran concentration in the anterior chamber was determined using a prototype fluorophotometer (OcuMetrics, Mountain View, Calif.) 90 minutes after an endotoxin administration. This instrument has excitation wavelengths of approximately 410 to 490 nm, with emission wavelengths of approximately 520 to 630 nm. The fluorescence emitted by the FITC-dextran was determined in both left and right eyes.
Statistical analysis was performed, comparing the anterior chamber fluorescence measurements of the test and control eye of each animal. A paired Wilcoxon Signed Rank Test (StatXact) was used, with a one sided p-value.

For the next test, the system named is VEGF receptor Flk-1. The test can be described thus: FACS analysis of Flk-1 expression in choroidal endothelial cells. The conditions noted are these: Example 1, FIG. 1; choroidal endothelial cells treated with PMA, compared to control cells. The test is classed as cell-based. On the procedure: (§1) To show the capacity of a mineralocorticoid, specifically fludrocortisone, to down-regulate receptors involved in biochemical pathways associated with oedema and exudative retinopathies, an assay was conducted looking at the activity of VEGF receptors Flk-1 and Flt-1 in choroidal endothelial cells. Flk-1 is known to be involved in cell proliferation whilst Flt-1 is involved in cell permeability.
(§2) The expression of Flk-1 and Flt-1 was measured, using fluorescence activated cell sorting (FACS) analysis, in untreated cells, cells treated with phorbolmyristate acetate (PMA), cells treated with PMA and then with the glucocorticoid triamcinolone acetonide (TA) and cells treated with PMA and then with the mineralocorticoid fludrocortisone. PMA is a model for pro-inflammatory cytokines and TA is known to […] the glucocorticoid receptor
(§3) The expression of Flk-1 and Flt-1 was also investigated in untreated choroidal endothelial cells, choroidal endothelial cells treated with Tumour Necrosis Factor-α (TNF-α) and choroidal endothelial cells treated with the mineralocorticoid fludrocortisone. TNF-α is a pro-inflammatory cytokine.
On the technique in general: A flow cytometer gives signals particle by particle.

A further test has as its system VEGF receptor Flt-1. The experiment in a line: FACS analysis of Flt-1 expression in choroidal endothelial cells. The test is classed as cell-based. The procedure: as §1, §2, §3

For `C[C@]12CC[C@H]3[C@@H](CCC4=CC(=O)CC[C@@]43C)[C@@H]1CC[C@@H]2C(=O)CO` [11 -deoxycorticosterone], the “exudative response (result in words)” value in test [1] was “did not show a reduction in the exudative response”.
In the case of `C[C@]12CCC(=O)C=C1CC[C@@H]1[C@@H]2CC[C@@]2(C)[C@H]1CC[C@]2(O)C(=O)CO` [11-DC, 17α,21-dihydroxypregn-4-ene-3,20-dione], in test [1], the “Anterior Chamber Fluorophotometer Results, Mean” value was determined as 331. Besides, the “Anterior Chamber Fluorophotometer Results” value was found to be 696 in test [1] (Rabbit 1); 578 in test [1] (Rabbit 2); 141 in test [1] (Rabbit 3); 147 in test [1] (Rabbit 4); 92 in test [1] (Rabbit 5). Moreover, the “reduction in the exudative response” value in test [1] came out at 37%.
Consider `C[C@]12CCC(=O)C=C1CC[C@@H]1[C@@H]2[C@@H](O)C[C@]2(C=O)[C@@H](C(=O)CO)CC[C@@H]12` [AS, 11β-11,21-dihydroxy-3,20-dioxopregen-4-en-18-al], for which the “Anterior Chamber Fluorophotometer Results, Mean” value in test [1] was determined as 248. Moreover, the “Anterior Chamber Fluorophotometer Results” value was found to be 243 in test [1] (Rabbit 1); 75 in test [1] (Rabbit 2); 125 in test [1] (Rabbit 3); 540 in test [1] (Rabbit 4); 256 in test [1] (Rabbit 5). The “exudative response (result in words)” value in test [1] is “very variable”.
Take `CC(=O)OCC(=O)[C@H]1CC[C@H]2[C@@H]3CCC4=CC(=O)CC[C@]4(C)[C@H]3CC[C@]12C` [DA, 21-hydroxypregn-4-ene-3,20-dione 21 acetate]: the “Anterior Chamber Fluorophotometer Results, Mean” value in test [1] is reported as 201. Further, the “Anterior Chamber Fluorophotometer Results” value in test [1] (Rabbit 1) is 220; in test [1] (Rabbit 2), 116; in test [1] (Rabbit 3), 455; in test [1] (Rabbit 4), 100; in test [1] (Rabbit 5), 113. The “reduction in the exudative response” value in test [1] was found to be 47%.
In the case of `C[C@]12CC[C@H]3[C@@H](CCC4=CC(=O)CC[C@@]43C)[C@@H]1CC[C@@H]2C(=O)CO` [DS, 21-hydroxypregn-4-ene-3,20-dione], the “Anterior Chamber Fluorophotometer Results, Mean” value in test [1] amounted to 174. In addition, the “Anterior Chamber Fluorophotometer Results” value is given as 340 in test [1] (Rabbit 1); 245 in test [1] (Rabbit 2); 59 in test [1] (Rabbit 3); 86 in test [1] (Rabbit 4); 140 in test [1] (Rabbit 5). Besides, the “reduction in the exudative response” value in test [1] was determined as 37%.
For `CC(=O)OCC(=O)[C@@]1(O)CC[C@H]2[C@@H]3CCC4=CC(=O)CC[C@]4(C)[C@@]3(F)[C@@H](O)C[C@@]21C` [FA, fludrocortisone acetate], the “Anterior Chamber Fluorophotometer Results, Mean” value in test [1] was 166. For the same compound, the “Anterior Chamber Fluorophotometer Results” value in test [1] (Rabbit 1) worked out at 27; in test [1] (Rabbit 2) it was 86; in test [1] (Rabbit 3), 261; in test [1] (Rabbit 4), 445; in test [1] (Rabbit 5), 10. Further, in test [1], the “reduction in the exudative response” value is recorded as 34%.
In the case of `CCCCCCCCCCCCCC(=O)O[C@@H]1[C@@H](C)[C@@]2(O)[C@@H](C=C(CO)C[C@]3(O)C(=O)C(C)=C[C@@H]23)[C@@H]2C(C)(C)[C@]12OC(C)=O` [PMA, phorbolmyristate acetate], the “expression of Flk-1” value with VEGF receptor Flk-1 was “increased”. Moreover, the “expression of Flt-1” value in the test with VEGF receptor Flt-1 (Example 1, FIG. 1, choroidal endothelial cells treated with PMA) was “increased”.
For TNF-α, in the test with VEGF receptor Flt-1 (Example 2, FIG. 2, choroidal endothelial cells, compared to untreated control cells), the “expression of Flt-1” value is recorded as “higher levels of Flt-1”.
